From US20240209028A1, “CNP COMPOUNDS” (priority 2022, published 2024)
Values after ≈ are worked out from the molar mass of the structure shown. Starred links: 1 amine or outer side, 2 acyl side, 3 side chain; linkers in the order of their positions; H or OH if unused. Positions of bridges follow the written chain, without caps; N, C: chain ends. Residues, ends and D or L forms follow the SMILES beside them. *: point of attachment. C18 diacid = O=C(O)CCCCCCCCCCCCCCCCC(=O)*; γGlu = O=C(O)[C@H](CCC(=O)[*:2])N[*:1]; AEEA = NCCOCCOCC(=O)O

Columns and labels:
[1] = CNP local tolerance study in LYD pigs (s.c. injection, histopathology); format: in vivo, domestic LYD pig; conditions: for local subcutaneous necrosis: pig, in vivo, sc
Description: The purpose of this study was to evaluate the local tissue reaction response to subcutaneous injection of CNP compounds in pigs.
Procedure: In domestic pigs, the injection site was subjected to histopathologic examination after subcutaneous dosing. Injections were placed mid-back between the shoulder and hip on both sides of the dorsal midline, and one or two days before injection sites of 2×2 cm were shaved and marked by permanent ink under light anaesthesia. Each injection consisted of 100 or 200 μl formulation with a concentration of approx. 4400 μM. CNP compound formulations were prepared according to the principles in General Methods of Preparation—Method G, and were either A) 8 mM sodium phosphate, 250 mM glycerol, pH 6.5, B) 5 mM sodium acetate, 250 mM glycerol, pH 4.0 or C) 5 mM sodium acetate, 240 mM propylene glycol, pH 4.0 and physiological saline was included as negative control.
On Day 1 the pigs were lightly anaesthetised. An insulin pen (NovoPen 4) and insulin needle (NovoTwist 32G/5 mm) were used for accurate deposition of the CNP formulations in the subcutaneous fat tissue with the needle perpendicular to the skin. On Day 5 (4 days post injection) or 6 (5 days post injection), the pigs were euthanised, and the injection sites were removed and fixed in 4% phosphate buffered neutral formaldehyde in sealed plastic containers. The tissue blocks were prefixed for 2-4 hours in 10% buffered formalin, cut into 2 mm thick slabs with a multi knife, examined for macroscopic changes and finally fixed overnight in cassettes. Two slabs of tissue were selected for light microscopic evaluation where the tissue reaction was maximal or alternatively in the central part of the injection site. Three to four 2-4 μm sections were cut from three levels at 100 μm distance, stained with haematoxylin and eosin (H&E) and evaluated in a light microscope. Histopathological changes were graded on a 5-level scale ((Minimal (Min), Mild (Mil), Moderate (Mod), Marked (Mar) and Severe (Sev)). The studies are summarised in Table 18.
Results: The results are summarised in Table 19. * Necrosis was used as a marker for local subcutaneous reactions; **NAD: No Abnormalities Detected

[2] = High-Molecular-Weight-Protein (HMWP) formation by SEC-UPLC; format: physicochemical; conditions: increase over two weeks at 37° C., pH 4.0
In short: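 Formulations at pH 4.0 or 6.5 incubated quiescently for two weeks at 37 °C; HMWP (peaks eluting before monomer, % of total peptide area) measured by SEC-UPLC, pH 2.4 mobile phase with 50% isopropanol, 50 °C, UV 215 nm. Value is HMWP increase, normalized to two weeks if needed.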

[3] = Solubility of CNP compounds at pH 4.0 and pH 6.5; format: physicochemical; conditions: pH 4
In short: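 Supernatant peptide concentration was quantified by CAD after overnight room-temperature equilibration of incompletely dissolved samples. Nominal loading was ≥4000-5000 nmol/mL. Media were pH 4.0 sodium acetate 5 mM/glycerol 250 mM, or pH 6.5 sodium phosphate 8 mM/glycerol 23 mg/mL reached by stepwise NaOH addition.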

[4] = LYD pig, s.c., approx. 4400 μM, 4 or 5 days after injection

CC[C@H](C)[C@@H]1NC(=O)[C@H](CCCNC(=N)N)NC(=O)[C@H](CC(=O)O)NC(=O)[C@H](CC(C)C)NC(=O)[C@@H]2CCCN2C(=O)[C@H](CC(C)C)NC(=O)CNC(=O)[C@H](Cc2ccccc2)NC(=O)[C@@H](NC(=O)CNC(=O)[C@H](CCC(N)=O)NC(=O)[C@H](CO)NC(=O)[C@H](CC(C)C)NC(=O)CNC(=O)[C@H](CCCCN)NC(=O)[C@H](CCCCN)NC(=O)[C@H](CCC(N)=O)NC(=O)[C@H](C)NC(=O)CNC(=O)[C@H](CCCCN)NC(=O)[C@H](Cc2ccc(O)cc2)NC(=O)[C@H](CCCCN)NC(=O)[C@H](CCCNC(=N)N)NC(=O)[C@H](C)NC(=O)COCCOCCNC(=O)COCCOCCNC(=O)COCCOCCNC(=O)COCCOCCNC(=O)CC[C@H](NC(=O)CC[C@H](NC(=O)CC[C@H](NC(=O)CC[C@H](NC(=O)CC[C@H](NC(=O)CCCCCCCCCCCCCCCCC(=O)O)C(=O)O)C(=O)O)C(=O)O)C(=O)O)C(=O)O)CSSC[C@@H](C(=O)O)NC(=O)CNC(=O)[C@H](CC(C)C)NC(=O)CNC(=O)[C@H](CO)NC(=O)[C@H](CC(C)C)NC(=O)[C@H](CO)NC(=O)CNC1=O [Compound 9407] ({C18 diacid-γGlu-γGlu-γGlu-γGlu-γGlu-AEEA-AEEA-AEEA-AEEA}-ARKYKGAQKKGLSQGCFGLPLDRIGSLSGLGC-OH; disulfide 16-32)
Number of injections by severity of necrosis: Min. [1, 4]: 1
Number of injections by severity of necrosis: NAD [1, 4]: 3

CC[C@H](C)[C@@H]1NC(=O)[C@H](CCCNC(=N)N)NC(=O)[C@H](CC(=O)O)NC(=O)[C@H](CC(C)C)NC(=O)[C@@H]2CCCN2C(=O)[C@H](CC(C)C)NC(=O)CNC(=O)[C@H](Cc2ccccc2)NC(=O)[C@@H](NC(=O)CNC(=O)[C@H](CCC(N)=O)NC(=O)[C@H](CO)NC(=O)CNC(=O)CNC(=O)[C@H](CCCCN)NC(=O)[C@H](CCCCN)NC(=O)[C@H](CCC(N)=O)NC(=O)[C@H](C)NC(=O)CNC(=O)[C@H](CCCCN)NC(=O)[C@H](Cc2ccc(O)cc2)NC(=O)COCCOCCNC(=O)COCCOCCNC(=O)COCCOCCNC(=O)COCCOCCNC(=O)CC[C@H](NC(=O)CC[C@H](NC(=O)CCCCCCCCCCCCCCCCC(=O)O)C(=O)O)C(=O)O)CSSC[C@@H](C(=O)O)NC(=O)CNC(=O)[C@H](CC(C)C)NC(=O)CNC(=O)[C@H](CO)NC(=O)[C@H](CC(C)C)NC(=O)[C@H](CO)NC(=O)CNC1=O [Compound 9435] ({C18 diacid-γGlu-γGlu-AEEA-AEEA-AEEA-AEEA}-YKGAQKKGGSQGCFGLPLDRIGSLSGLGC-OH; disulfide 13-29)
Number of injections by severity of necrosis: Mild [1, 4]: 1
Number of injections by severity of necrosis: Min. [1, 4]: 3

CC[C@H](C)[C@@H]1NC(=O)[C@H](CCCNC(=N)N)NC(=O)[C@H](CC(=O)O)NC(=O)[C@H](CC(C)C)NC(=O)[C@@H]2CCCN2C(=O)[C@H](CC(C)C)NC(=O)CNC(=O)[C@H](Cc2ccccc2)NC(=O)[C@@H](NC(=O)CNC(=O)[C@H](CCC(N)=O)NC(=O)[C@H](CO)NC(=O)[C@H](CC(C)C)NC(=O)CNC(=O)[C@H](CCCCN)NC(=O)[C@H](CCCCN)NC(=O)[C@H](CCC(N)=O)NC(=O)[C@H](C)NC(=O)CNC(=O)[C@H](CCCCN)NC(=O)[C@H](Cc2ccc(O)cc2)NC(=O)COCCOCCNC(=O)COCCOCCNC(=O)COCCOCCNC(=O)COCCOCCNC(=O)CC[C@H](NC(=O)CC[C@H](NC(=O)CC[C@H](NC(=O)CCCCCCCCCCCCCCCCC(=O)O)C(=O)O)C(=O)O)C(=O)O)CSSC[C@@H](C(=O)O)NC(=O)CNC(=O)[C@H](CC(C)C)NC(=O)CNC(=O)[C@H](CO)NC(=O)[C@H](CC(C)C)NC(=O)[C@H](CO)NC(=O)CNC1=O [Compound 9480] ({C18 diacid-γGlu-γGlu-γGlu-AEEA-AEEA-AEEA-AEEA}-YKGAQKKGLSQGCFGLPLDRIGSLSGLGC-OH; disulfide 13-29)
Number of injections by severity of necrosis: NAD [1, 4]: 4

CC[C@H](C)[C@@H]1NC(=O)[C@H](CCCNC(=N)N)NC(=O)[C@H](CC(=O)O)NC(=O)[C@H](CC(C)C)NC(=O)[C@@H]2CCCN2C(=O)[C@H](CC(C)C)NC(=O)CNC(=O)[C@H](Cc2ccccc2)NC(=O)[C@@H](NC(=O)CNC(=O)[C@H](CO)NC(=O)[C@H](CO)NC(=O)[C@H](CC(C)C)NC(=O)CNC(=O)[C@H](CCCCN)NC(=O)[C@H](CCCCN)NC(=O)[C@H](CCC(N)=O)NC(=O)[C@H](C)NC(=O)CNC(=O)[C@H](CCCCN)NC(=O)[C@H](Cc2ccc(O)cc2)NC(=O)[C@H](CCCCN)NC(=O)[C@H](CCCNC(=N)N)NC(=O)[C@H](C)NC(=O)[C@H](CCC(N)=O)NC(=O)[C@@H]2CCCN2C(=O)[C@H](Cc2c[nH]cn2)NC(=O)[C@H](CCC(=O)O)NC(=O)[C@H](CCC(N)=O)NC(=O)CC[C@H](NC(=O)CC[C@H](NC(=O)CC[C@H](NC(=O)CC[C@H](NC(=O)CC[C@H](NC(=O)CCCCCCCCCCCCCCCCC(=O)O)C(=O)O)C(=O)O)C(=O)O)C(=O)O)C(=O)O)CSSC[C@@H](C(=O)O)NC(=O)CNC(=O)[C@H](CC(C)C)NC(=O)CNC(=O)[C@H](CO)NC(=O)[C@H](CC(C)C)NC(=O)[C@H](CO)NC(=O)CNC1=O [Compound 9482] ({C18 diacid-γGlu-γGlu-γGlu-γGlu-γGlu}-QEHPQARKYKGAQKKGLSSGCFGLPLDRIGSLSGLGC-OH; disulfide 21-37)
Number of injections by severity of necrosis: NAD [1, 4]: 4

CC[C@H](C)[C@@H]1NC(=O)[C@H](CCCNC(=N)N)NC(=O)[C@H](CCC(=O)O)NC(=O)[C@H](CC(C)C)NC(=O)[C@H](CCCCN)NC(=O)[C@H](CC(C)C)NC(=O)CNC(=O)[C@H](Cc2ccccc2)NC(=O)[C@@H](NC(=O)CNC(=O)[C@H](CCCCN)NC(=O)[C@H](CO)NC(=O)[C@H](CC(C)C)NC(=O)CNC(=O)[C@H](CCCCN)NC(=O)[C@H](CCCCN)NC(=O)[C@H](CCC(N)=O)NC(=O)[C@H](C)NC(=O)CNC(=O)[C@H](CCCCN)NC(=O)[C@H](Cc2ccc(O)cc2)NC(=O)[C@H](CCCCN)NC(=O)[C@H](CCCNC(=N)N)NC(=O)[C@H](C)NC(=O)COCCOCCNC(=O)COCCOCCNC(=O)CC[C@H](NC(=O)CCCCCCCCCCCCCCCCC(=O)O)C(=O)O)CSSC[C@@H](C(=O)O)NC(=O)CNC(=O)[C@H](CC(C)C)NC(=O)CNC(=O)[C@H](CO)NC(=O)[C@H](CC(C)C)NC(=O)[C@H](CO)NC(=O)CNC1=O [compound 0776] ({C18 diacid-γGlu-AEEA-AEEA}-ARKYKGAQKKGLSKGCFGLKLERIGSLSGLGC-OH; disulfide 16-32)
local subcutaneous necrosis [1]: moderate to marked

CC[C@H](C)[C@@H]1NC(=O)[C@H](CCCNC(=N)N)NC(=O)[C@H](CC(=O)O)NC(=O)[C@H](CC(C)C)NC(=O)[C@H](CCCCN)NC(=O)[C@H](CC(C)C)NC(=O)CNC(=O)[C@H](Cc2ccccc2)NC(=O)[C@@H](NC(=O)CNC(=O)[C@H](CCCCN)NC(=O)[C@H](CO)NC(=O)[C@H](CC(C)C)NC(=O)CNC(=O)[C@H](CCCCN)NC(=O)[C@H](CCCCN)NC(=O)[C@H](CCC(N)=O)NC(=O)[C@H](C)NC(=O)CNC(=O)[C@H](Cc2c[nH]cn2)NC(=O)[C@H](CCC(=O)O)NC(=O)COCCOCCNC(=O)COCCOCCNC(=O)CC[C@H](NC(=O)CCCCCCCCCCCCCCCCC(=O)O)C(=O)O)CSSC[C@@H](C(=O)O)NC(=O)CNC(=O)[C@H](CC(C)C)NC(=O)CNC(=O)[C@H](CO)NC(=O)[C@H](CC(C)C)NC(=O)[C@H](CO)NC(=O)CNC1=O [compound 1235]
local subcutaneous necrosis [1]: minimal to mild

CC[C@H](C)[C@@H]1NC(=O)[C@H](CCCNC(=N)N)NC(=O)[C@H](CCC(=O)O)NC(=O)[C@H](CC(C)C)NC(=O)[C@@H]2CCCN2C(=O)[C@H](CC(C)C)NC(=O)CNC(=O)[C@H](Cc2ccccc2)NC(=O)[C@@H](NC(=O)CNC(=O)[C@H](CCC(N)=O)NC(=O)[C@H](CO)NC(=O)CNC(=O)CNC(=O)[C@H](CCCCN)NC(=O)[C@H](CCCCN)NC(=O)[C@H](CCC(N)=O)NC(=O)[C@H](C)NC(=O)CNC(=O)[C@H](CCCCN)NC(=O)[C@H](Cc2ccc(O)cc2)NC(=O)COCCOCCNC(=O)COCCOCCNC(=O)COCCOCCNC(=O)COCCOCCNC(=O)CC[C@H](NC(=O)CC[C@H](NC(=O)CCCCCCCCCCCCCCCCC(=O)O)C(=O)O)C(=O)O)CSSC[C@@H](C(=O)O)NC(=O)CNC(=O)[C@H](CC(C)C)NC(=O)CNC(=O)[C@H](CO)NC(=O)[C@H](CC(C)C)NC(=O)[C@H](CO)NC(=O)CNC1=O [compound 1489] ({C18 diacid-γGlu-γGlu-AEEA-AEEA-AEEA-AEEA}-YKGAQKKGGSQGCFGLPLERIGSLSGLGC-OH; disulfide 13-29)
2-Week HMWP formation at pH 4.0 (%), % relative to total peak area [2]: 2.12%
solubility [3]: 5.93 mM (≈ 24 mg/mL)
